Measurements published in US20140315786A1, “USE OF INTRACELLULAR ENZYMES FOR THE RELEASE OF COVALENTLY LINKED BIOACTIVES” (Catabasis Pharmaceuticals, Inc., priority 2011, published 2014).
One block for each compound: values may come before it.

How the values were obtained:
NFκB = assay: NFκB-driven luciferase reporter assay in LPS-challenged RAW 264.7 macrophages; assay type: cell-based; conditions: Mus musculus, RAW264.7; RAW 264.7, LPS 200 ng/mL; linked bioactive; read-out: IC50 in an NFkB assay
Description: RAW 264.7 cells transfected with an NFκB-driven luciferase reporter were plated in 96 well plates. Cells were treated with Vehicle (0.1% ethanol) or test compounds for 2 hours. As a positive control for inhibition of NFκB signaling, 6 wells were treated with […]. Cells were then challenged with 200 ng/mL LPS for 3 hours in the presence of test compounds. A subset of wells treated with vehicle remained unstimulated with LPS to determine the floor signal of the assay. NFκB driven luciferase activity was developed by addition of BriteLite luciferase kit (PERKIN ELMER®) and measured using a Victor V plate reader. NFκB activity (luciferase activity) for each treatment was normalized to Vehicle wells treated with LPS (% NFκB Response).

[1] = target: T1, human recombinant MAG-lipase (Homo sapiens, UniProt Q99685); assay: Hydrolysis with human recombinant monoacylglycerol lipase, with and without MAGL inhibitor; assay type: biochemical; conditions: FIG. 8
T1 construct: purchased Cayman 705192
T1 sequence (Q99685 1-303): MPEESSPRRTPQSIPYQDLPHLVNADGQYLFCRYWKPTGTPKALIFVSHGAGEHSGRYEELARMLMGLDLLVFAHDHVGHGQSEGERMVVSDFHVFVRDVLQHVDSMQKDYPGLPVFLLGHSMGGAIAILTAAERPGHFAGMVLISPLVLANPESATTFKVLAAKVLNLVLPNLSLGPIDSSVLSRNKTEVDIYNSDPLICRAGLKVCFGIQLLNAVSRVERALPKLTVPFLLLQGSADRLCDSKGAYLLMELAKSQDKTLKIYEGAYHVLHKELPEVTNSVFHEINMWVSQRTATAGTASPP
Description: Hydrolysis experiment involving Monoacylglycerol lipase (MAGL) with and without a MAGL inhibitor. A commercially available Monoacylglycerol (MAGL) kit from Cayman (Cat #705192) was used for the hydrolysis experiment. The hydrolysis was carried out in Eppendorf tubes by adding together 300 μL of a 10 mM Tris-HCl buffer (pH 7.2, 1 mM EDTA), 20 μL of DMSO, and 20 μL of the human recombinant MAG-lipase. […] The Eppendorf tubes were gently inverted to mix the components and then placed in a 37° C. incubator. A 25 μl, sample was withdrawn at each of the following time points: 0, 5, 10, 15, and 30 min. […] In a separate experiment, the hydrolysis was then repeated in the presence of a MAGL inhibitor (compound JZL184, supplied with the commercially available MAGL kit). Eppendorf tubes were charged with 300 μL of a 10 mM Tris-HCl buffer (pH 7.2, 1 mM EDTA), 20 μL of a […] solution of JZL184 in DMSO in order to make a 5 μM final concentration, and 20 μL of the human recombinant MAG-lipase. […] The Eppendorf tubes were gently inverted to mix the components and then placed in a 37° C. incubator.

LTB4 = LTB4 assay (HTRF) in differentiated HL-60 cells stimulated with A23187; assay type: cell-based; conditions: Homo sapiens, linked bioactive
Description: The LTB4 assay was conducted using a commercial kit (CISBIO, Bedford, Mass.) in HL-60 cells. HL-60 cells were maintained in IMEM supplemented with 20% serum in 37° C. in 5% CO2. Media was changed 2 times a week and cells kept at a density of 2×10^5 to 1×10^6 cells/ml.
Before the experiment cell culture media was changed to 10% serum and HL-60 cells were differentiated for 3 days in 1.3% DMSO. On day 3 cells were concentrated 2 times in the DMSO containing media and 1 ml cell suspension/well plated in 24-well plates. BSA controls or CAT compounds prepared in 1% BSA from an ethanol or DMSO stock solution were added to the wells and the cell were incubated for 21 hours. Next day, cells were transferred to Eppendorf tubes centrifuged at 300×g and rinsed once in DPBS. Cells were re-suspended in 300 μl DPBS containing 2% FBS (assay buffer), and 80 μl/well was plated in 96-well plates (black sides, clear bottom). Some cells were pre-incubated with 10 μM NDGA, a LOX inhibitor. To initiated LTB4 secretion, cells were stimulated with the calcium ionophore A23187 (5 μM) for 15 min. […] LTB4 content in the supernatant was assessed by a homogeneous time resolved fluorescence (HTRF) LTB4 assay from CISBIO, in a 384-well plate format. […] Cell viability was determined in the 96-well plate by CellTiter-Glo (Promega, Madison, Wis.).

IC50 (NFκB): 40000 to 50000 nM
hydrolysis using human recombinant MAG-lipase (remaining compound) ([1]; 5 μM final concentration, 37° C., 0-30 min, no inhibitor): time-dependent hydrolysis
SMILES: CC/C=C\C/C=C\C/C=C\C/C=C\C/C=C\C/C=C\CCC(=O)Nc1ccc(O)c(C(=O)O)c1 [II-1, 5-(4Z,7Z,10Z,13Z,16Z,19Z)-docosa-4,7,10,13,16,19-hexaenamido-2-hydroxybenzoic acid]

SMILES: O=C(Oc1ccc([N+](=O)[O-])cc1)N1CCC(C(O)(c2ccc3c(c2)OCO3)c2ccc3c(c2)OCO3)CC1 [JZL184, reference compound]
effect of MAGL inhibitor on rate of hydrolysis of compound II-1 ([1]; 5 μM inhibitor): reduced significantly

IC50 (LTB4): 2200 nM
SMILES: CC/C=C\C/C=C\C/C=C\C/C=C\C/C=C\C/C=C\CCC(=O)NCCNC(=O)C(C)c1ccc(CC(C)C)cc1 (centres unmarked) [VIIa-1, (4Z,7Z,10Z,13Z,16Z,19Z)-N-(2-(2-(4-isobutylphenyl)propanamido)ethyl)docosa-4,7,10,13,16,19-hexaenamide]

IC50 (LTB4): 1600 nM
SMILES: CC/C=C\C/C=C\C/C=C\C/C=C\C/C=C\C/C=C\CCC(=O)N[C@@H](CCCCNC(=O)C(C)c1ccc(CC(C)C)cc1)C(=O)O (stereo partly drawn) [VIIa-2, (2S)-2-((4Z,7Z,10Z,13Z,16Z,19Z)-docosa-4,7,10,13,16,19-hexaenamido)-6-(2-(4-isobutylphenyl)propanamido)hexanoic acid]
